Assay results as given in a melting point compilation (Tetko et al.; mined from patent text by program, amines drawn as free bases though some values may be those of a salt).

Structure (SMILES) | melting point
COC(=O)C1Cc2ccccc2N1c1ncnc2cc(OC)c(OC)cc12 (centres undefined) | 186 to 190 °C
O=C1CCC(c2ccc3[nH]c(-c4ccc(-n5ccnc5)cc4)cc3c2)=NN1 | 295 to 298 °C
FC(F)C(F)(F)Sc1nc(-c2ccccc2)c(-c2ccccc2)[nH]1 | 212 to 213 °C
CC(c1ccc(CCn2cnc3cc(-c4ccc(Cl)cc4)sc3c2=O)cc1)N1CCCCC1 (centres undefined) | 175 to 179 °C
Cc1cc(-c2ccc(C#N)cc2)nc(-c2cccc(-c3cccc(S(N)(=O)=O)c3)n2)n1 | 255 °C
COc1cccc(C(=O)CCCN2CCC(O)(c3ccc(Cl)cc3)CC2)c1 | 127 to 129 °C
O=C1OCc2c(c3cc(-c4ccc(Cl)cc4)ccc3n2Cc2ccccc2)C1=O | 263 to 264 °C
COc1ccc(S(=O)(=O)C2(C(=O)NO)CCN(C3CCCCCCC3)CC2)cc1 | > 200 °C
O=C(Nc1n[nH]c(=S)s1)NC(Cc1ccccc1)C(=O)NCCN1CCOCC1 (centres undefined) | 165 to 167 °C
CCO[PH](=O)CN(C)c1cc(Oc2ccc(C(F)(F)F)cc2Cl)ccc1[N+](=O)[O-] (centres undefined) | 118 to 120 °C
COc1ccc(Cl)cc1C(=O)NCCc1ccc(-c2ccc(F)cc2)c(S(N)(=O)=O)c1 | 195 °C
O=[N+]([O-])c1cc([N+](=O)[O-])c(Nc2nc(Cl)ccc2C(F)(F)F)c(C(F)(F)F)c1 | 129 to 131 °C
CC(C)COc1ccc(-c2ccc3nnn(Cc4ccc5ccccc5n4)c3n2)cc1F | 115 to 157 °C
Nc1ccc2c(c1)S(=O)(=O)c1ccccc1-2 | 261 to 264 °C
Cc1c(C(=O)Nc2ccc(OCC(C)(C)C)c(C#N)c2)cnn1-c1cccc(C(F)(F)F)c1 | 116 to 118 °C
C#Cc1sc(C2=NOC(c3cc(Cl)cc(Cl)c3)(C(F)(F)F)C2)cc1C (centres undefined) | 105 to 107 °C
NS(=O)(=O)c1cc(C(=O)O)cc(NCc2ccc3c(c2)OCO3)c1Oc1ccccc1 | 229 to 230 °C
CC(C)(C)OC(=O)NC(NC(=O)OC(C)(C)C)Nc1ccc(CCc2csc(NC(=O)c3ccccc3)n2)cc1 | 143 to 144 °C
CCCCCCCCCCCn1ncnc1NC(=O)Nc1c(C(C)C)cccc1C(C)C | 146 to 148 °C
Cc1[nH]c2ccccc2c1C=C1SC(=S)N(CC(=O)O)C1=O | 291 to 292 °C
COc1cc([N+](=O)[O-])c2nccc(C)c2c1OCCCCCc1cccs1 | 51 to 54 °C
O=C1c2cccc3cccc(c23)C(=O)N1CCCCCCBr | 95 to 96 °C
C=C(Cc1ccc(Cl)cc1)C(=O)O | 78 to 86 °C
CC(C)c1ccc(S(=O)(=O)n2c(Cc3ccc(C(=O)O)c(O)c3)cc3cc(Cl)ccc32)cc1 | 139 °C
Cc1ccccc1C(=O)CCc1c(C(=O)N2CCCC2)cc2c(nc(C)n2C)c1O | 216 to 217 °C

Structure (SMILES) | melting point
O=C(NC1CCCOC1)c1ccc2nonc2c1 (centres undefined) | 204 to 205 °C
CCOC(=O)CSc1nc(Cl)cc(Nc2c(C)cc(C)cc2C)n1 | 100 to 103 °C
COc1cc(OC)c2c(=O)[nH]c(-c3cccc(OCCO)c3)nc2c1 | 245 to 246 °C
Cc1nc(Oc2ccc(Cl)cc2)c2ccccc2c1CC(=O)O | 192 to 195 °C
Cc1ccccc1NC(=N)NC1CCCCC1 | 145 to 146 °C
c1ccc(OCCCCCCN2CCN(c3nccs3)CC2)cc1 | 37 to 39 °C
CCOC(=O)CC(Cc1ccc(OCCc2nc(-c3ccccc3)oc2C)cc1)C(N)=O (centres undefined) | 142 °C
CC(=O)Nc1cc(O)c(C(=O)CCCCCl)cc1Cl | 126 to 128 °C
CC(=O)OCc1c(Br)cccc1N1Cc2cc(N(C)C)ccc2C1=O | 93 to 95 °C
Oc1cccc(OCc2ccc3ccccc3n2)c1 | 151 to 153 °C
O=C(Cc1ccc(Cl)cc1C(=O)O)Nc1cccc(/C=C/c2nc(C3CCC3)cs2)c1 | 223 to 225 °C
Cc1cc(-c2c[nH]cn2)ccc1N=CNC#N | 200 to 202 °C
COc1cc(COc2nn(-c3ccccc3)cc2C=O)ccc1OCc1sc(-c2ccccc2)nc1C | 171 to 172 °C
CCCc1cc2c(NC(=S)N3Cc4ccccc4CC3CCO)cccc2cn1 (racemic) | 175 °C
COc1cc(-c2csc(C(=N)NO)n2)cc(Cl)c1OC | 169 to 170 °C
CC1CCCC(C)N1Cc1ccc(NC(=O)C#Cc2ccc(-c3ccc(Cl)cc3)cc2)cc1 (centres undefined) | 158 to 163 °C
Cn1cc(SC(C)(C)C)c(=O)c(-c2ccc(Cl)c(C(F)(F)F)c2)c1 | 138 to 142 °C
COc1cc(C(S)CS)cc(OC)c1OC (centres undefined) | 72.5 to 73.5 °C
Cc1cn2cccc(CCl)c2n1 | 110 to 112 °C
OCCNc1ccnc2ccccc12 | 152 to 154 °C
COc1ccc2c(c1)CC(=O)N2 | 148 to 150 °C
Nc1nc2ccccc2c2c1nc(O)n2Cc1ccccc1 | > 250 °C
O=C(Nc1nc(-c2ccco2)c(C(=O)C2CCSCC2)s1)c1ccncc1 | 203 to 210 °C
Cc1nc(Cn2c(=O)sc3cc(F)c(N4C(=O)C5=C(CCCC5)C4=O)cc32)no1 | 198 to 199 °C
CCc1c2c(nn1CC)c(N)nc1cc(OC)ccc12 | 210 to 211 °C

Structure (SMILES) | melting point
Fc1ccc(C2=CCC3(CC2)OCCO3)cc1 | 84 to 85 °C
CCN(Cc1ccc(Cl)nc1)C(=NC#N)NC | 122 to 123 °C
CCc1nn2ccccc2c1NC(=O)COC | 106 to 108 °C
CCC(=O)N[C@H]1CCc2c(ccc(OC)c2OC)C1 | 149 to 151 °C
O=C1NC(=O)C(Cc2ccc(N3CCC(NC[C@H](O)c4ccc5nnnn5c4)CC3)cc2)S1 (some centres undefined) | 130 to 132 °C
O=C(O)CCc1cc(OCCCc2cn(-c3ccc(C(F)(F)F)cn3)nc2C2CCCCC2)nn1C1CCCCC1 | 190 to 191 °C
O=C1c2ccccc2C(=O)N1OCF | 126 to 127 °C
O=[N+]([O-])c1ccc(OC(c2ccc(F)cc2)(c2ccc(F)cc2)c2nccs2)cc1C(F)(F)F | 133 to 134 °C
CCCC(=O)Nc1ccccc1C(F)(F)F | 76 °C
CNC(=O)N1CCc2cc(S(=O)(=O)N(C)OC)ccc21 | 152 °C
CC12CCC(=O)C=C1CCC1C2CCC2(C)C(n3ccnn3)=CCC12 (centres undefined) | 118 to 120 °C
CCCCNC(=S)c1cccc(NC(=O)N(C)C)c1 | 68 to 71 °C
CC(C=O)c1ccc2cc(OCc3ccc4ccccc4n3)ccc2c1 (centres undefined) | 113 to 115 °C
CCCCCc1c(-c2ccc3cc(OCc4nnn[nH]4)ccc3c2)n(C)c2ccccc12 | 120 to 122 °C
COc1cccc(CNC(=O)c2nc3scc(-c4cccc(-c5ccc(C(=O)O)cc5)c4)c3c(=O)[nH]2)c1 | 259 to 260 °C
Cn1c(CO)nc2cncnc21 | 122 to 125 °C
NC(=O)c1c[nH]c2cc(Cl)c([N+](=O)[O-])cc2c1=O | 298 to 300 °C
O=C(O)C(=O)c1ccc(OCCOc2ccc3ccccc3c2)cc1 | 144 to 145 °C
O=C(O)CCCCCOc1ccc(C2OC3C(CO)OC(n4ccc(=O)[nH]c4=O)C3O2)cc1 (centres undefined) | 158 to 160 °C
CC(C)(C)c1ccc2c(c1)-c1c(c(C(=O)C(C#N)C(=O)NCc3ccccc3)nn1-c1ccccc1)CO2 (centres undefined) | 281 to 284 °C
Cc1ccc(C2CC(N)=NN2c2ccccc2)cc1 (centres undefined) | 165 to 166 °C
C=C(C)OC(=O)N1c2cc(Cl)ccc2NC(=S)[C@@H]1C | 148 to 150 °C
O=Cc1cnc2c(OCc3ccccc3)cccn12 | 167 °C
Cc1cc(-c2cccc(C(=O)CC(=O)Nc3cc(-c4ccccc4F)ccc3NC(=O)OC(C)(C)C)c2)on1 | 158 to 160 °C
O=C(O)C1CCN(c2nnc(NCc3ccc4c(c3)OCO4)c3ccncc23)CC1 | 138 to 140 °C

Structure (SMILES) | melting point
O=CC=NNc1c(Cl)cc(C(F)(F)F)cc1Cl | 131 to 133 °C
COc1ccc(-c2nc(S)[nH]c2-c2ccncc2)cc1 | 280 °C
Cc1onc(-c2ccccc2)c1-c1ccc(S(=O)(=O)NC(=O)CN)cc1 | 231 to 235 °C
COc1ccc(CSC2=NC(c3cccc(Cl)c3Cl)C(C(=O)OC(C)C)=C(C)N2)cc1 (centres undefined) | 98 to 100 °C
CC1(O)C=CC2C3CCC4=CC(=O)CCC4C3C(c3ccc(-c4cccnc4)cc3)CC21C (centres undefined) | 159 °C
COc1ccnc(CCc2nc3cc(-c4ccc(S(=O)(=O)N(C)c5ccc(Cl)cc5)cc4)cnc3[nH]2)c1 | 191 to 192 °C
Cc1cccc(COc2cccc(OCc3ccc(-c4ccccc4)cn3)c2)c1C(=O)O | 80 to 83 °C
CC1CCc2c(c3c(O)cc(C(C)CCCc4ccc(F)cc4)cc3oc2=O)C1 (centres undefined) | 127 to 129 °C
Cc1nc2nccc(O)c2cc1Br | > 250 °C
Cc1ccc(NC2=C(Cl)C(=O)c3ccccc3C2=O)nc1 | 260 to 261 °C
COc1ccc(CNC(=S)N2C(=O)CC(c3ccc(OC)c(OC4CCCC4)c3)N2C)cc1 (centres undefined) | 52 to 55 °C
O=C(O)COc1ccccc1Cn1nc(-c2cccs2)c(Cc2cc3c(cc2Cl)OCO3)c1C(=O)O | > 260 °C
NC(=S)C1CCCc2c1ncc1c2CCCC1 (centres undefined) | 162 °C
Nn1cc(I)c(=O)[nH]c1=O | 195 to 196 °C
Cc1cnc(N2CCC(c3ccc(N)cc3)CC2)n1C | 219 to 220 °C
CCOC(=O)CCCCC1CC(n2c3ccccc3c3ccccc32)c2ccccc2N1C(=O)c1ccc(OC)cc1 (centres undefined) | 167 to 168 °C
O=C(N1CCNCC1)N1CCC(c2ccncc2)CC1 | 116 to 117 °C
COc1cc(CNC(=S)NC(COC(=O)C(C)(C)C)Cc2ccc(C)c(C)c2)ccc1O (centres undefined) | 43 to 48 °C
CCOC(=O)C(C)(C)CCCCCOc1ccc(-c2csc(NC(=O)NC3CCCCC3)n2)cc1 | 106 to 108 °C
CON(C(=O)c1cn(C)nc1C(F)F)C(C)C1CC1c1ccc(Cl)cc1Cl (centres undefined) | 133 to 135 °C
CC1(C)c2cc(I)ccc2-c2ccc(I)cc21 | 195 °C
C=Cc1ccc(Nc2c(C(=O)NOCCO)ccc(F)c2F)c(F)c1 | 134 to 137 °C
CCCCCCCCOc1cc2cc(CO)c(CO)c(-c3ccnc(Cl)c3)c2cc1OC | 98 to 102 °C
O=c1oc2cc(N3CCN(CCF)CC3)ccc2cc1-c1nc2ccccc2s1 | 246 °C
